# Test results as given in patent publication US12527801B2, “Cell activator of animal cell” (Vitamin C60 BioResearch Corporation, priority 2019, dated 2026).
# Test system: Normal human epidermal keratinocytes
# Assay: Action of activating epidermal cells (MTT reduction)
# Format: cell-based
# Conditions: for Index (%) Mean ± S.D.: 48 h, untreated cells = 100
# Method: Normal human epidermal keratinocytes were seeded on 96-well plates at the density of 5.0×10^3 cells/well using a HuMedia KG2 medium (KG2). 24 hours after seeding, the above-mentioned medium was replaced with a HuMedia KB2 medium (KB2) comprising the test sample. AOH and AHX (2-azahypoxanthine) were used as test samples, KG2 as a positive control (P. C.) for the cell activating action was treated instead of the test sample, and cells which were not treated with the samples were used as a negative control. After culturing for 48 hours, the above-mentioned medium was replaced with KB2 comprising 0.2 mg/mL of MTT to perform culturing for 1 hour. After removing the medium, the absorbance at 550 nm and 650 nm of the cell lysate in which 2-propanol was added to lyse the cells was measured. The amount of MTT reduced to blue formazan was obtained by subtracting the absorbance at 650 nm, which was derived from the cell turbidity, from the absorbance at 550 nm. The action of activating epidermal keratinocytes was shown as Index (%), which is a percentage of the absorbance of the cells, which was treated with the test samples, to the absorbance of the cells, which was not treated with the samples (negative control), with the amount of MTT reduced as an index.
smiles,measurement,setting,value
"O=c1[nH]nnc2[nH]cnc12 [AHX, 7H-imidazo[4,5-d][1,2,3]triazin-4(3H)-one, reference compound]",Index (%) Mean ± S.D.,3.9 μg/mL,100.6 ± 3%
same,Index (%) Mean ± S.D.,7.8 μg/mL,96.1 ± 2.7%
same,Index (%) Mean ± S.D.,15.6 μg/mL,94 ± 5.9%
same,Index (%) Mean ± S.D.,31.3 μg/mL,87.1 ± 4.5%
same,Index (%) Mean ± S.D.,62.5 μg/mL,80.2 ± 1.8%
same,Index (%) Mean ± S.D.,125 μg/mL,77.4 ± 2^ %
same,Index (%) Mean ± S.D.,250 μg/mL,78.4 ± 1.8%
same,Index (%) Mean ± S.D.,500 μg/mL,74.2 ± 1.9%
same,change in Index,concentration of 31.3 μg/mL or more,significantly reduced
same,proliferative effect / cell activating action,epidermal keratinocytes,did not have a proliferative effect
